The subject of the data set is S180 tumor cells (mouse sarcoma). The settings on record: mice sarcoma S180, stomach lavage, 0.3 ml/10 g body weight/day×10. An excerpt: The mice inoculated by S180 tumor cells (mouse sarcoma) were used as model animals.
In the meantime, non-inoculated mice were feed and used as the native control group.

The record followed here is patent publication US9901602B2, “Ejaculum of animals as medicinal material and uses thereof in medicaments for treatment of diseases such as tumors, depression, etc” (Hui CHENG, priority 2008, dated 2018).

`O=P1(N(CCCl)CCCl)NCCCO1` (centres unmarked) [cyclophosphamide]: the “Mice body (GPT)” value amounted to 39.2 ± 5.69 and the “Weight of Tumor (g) (X ± SD)” value stood at 0.614 ± 0.268 g.
